Results taken from PubChem BioAssay (NCI).
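Values below derive from 48-hour exposures of cells grown in 96-well plates, with endpoints linearly interpolated between the two concentrations bracketing the appropriate inhibition level. GI50 is the concentration that inhibits growth by half. Definition used: TGI = concentration required for complete inhibition of growth.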

Tests used:
Assay in all cases: NCI anticancer screen, dose series, 48 h
[1] = test system: SK-MEL-28 melanoma
[2] = test system: U251 CNS
[3] = test system: MCF7 breast
[4] = test system: MDA-MB-435
[5] = test system: HS 578T breast
[6] = test system: HL-60(TB) leukemia
[7] = test system: NCI-H226 lung
[8] = test system: NCI/ADR-RES ovarian
[9] = test system: LOX IMVI melanoma
[10] = test system: SK-MEL-5 melanoma
[11] = test system: NCI-H522 lung
[12] = test system: SK-OV-3 ovarian
[13] = test system: UO-31 renal
[14] = test system: COLO 205 colon
[15] = test system: RXF 393 renal
[16] = test system: UACC-62 melanoma
[17] = test system: SN12C renal
[18] = test system: UACC-257 melanoma
[19] = test system: RPMI-8226 leukemia
[20] = test system: HOP-92 NSCLC
[21] = test system: NCI-H460 lung
[22] = test system: SNB-75 CNS
[23] = test system: OVCAR-3 ovarian
[24] = test system: K-562 leukemia
[25] = test system: A549 NSCLC
[26] = test system: HCC-2998 colon
[27] = test system: OVCAR-5 ovarian
[28] = test system: HCT-15 colon
[29] = test system: SF-539 CNS

CC(C)(C)Nc1nc2c(OCCc3ccccc3)cccn2c1-c1cccc(F)c1
GI50 [1]: 3.93 µM
TGI [1]: 74.6 µM
GI50 [2]: 6.19 µM
TGI [2]: 25.2 µM
GI50 [3]: 4.34 µM
TGI [3]: 32.4 µM
GI50 [4]: 5.07 µM
TGI [4]: 27.4 µM
GI50 [5]: 10.1 µM
TGI [5]: 64.2 µM
GI50 [6]: 3.78 µM
TGI [6]: 18.8 µM
GI50 [7]: 6.29 µM
TGI [7]: 63 µM
GI50 [8]: 4.25 µM
TGI [8]: > 100 µM
GI50 [9]: 5.02 µM
TGI [9]: 17 µM
GI50 [10]: 5.26 µM
TGI [10]: 17.7 µM
GI50 [11]: 4.17 µM
TGI [11]: 42.3 µM
GI50 [12]: 19.9 µM
TGI [12]: > 100 µM
GI50 [13]: 2.75 µM
TGI [13]: 19.7 µM
GI50 [14]: 8.88 µM
TGI [14]: 26.8 µM
GI50 [15]: 8.78 µM
TGI [15]: 29.2 µM
GI50 [16]: 2.92 µM
TGI [16]: 12.2 µM
GI50 [17]: 3.99 µM
TGI [17]: > 100 µM
GI50 [18]: 7.56 µM
TGI [18]: > 100 µM
GI50 [19]: 3.7 µM
TGI [19]: 62.1 µM
GI50 [20]: 3.3 µM
TGI [20]: > 100 µM
GI50 [21]: 5.5 µM
TGI [21]: 24.8 µM
GI50 [22]: 16.1 µM
TGI [22]: > 100 µM
GI50 [23]: 3.91 µM
TGI [23]: 39 µM
GI50 [24]: 3.49 µM
TGI [24]: > 100 µM
GI50 [25]: 4.4 µM
TGI [25]: > 100 µM
GI50 [26]: 4.81 µM
TGI [26]: 69.6 µM
GI50 [27]: 8.58 µM
TGI [27]: > 100 µM
GI50 [28]: 3.51 µM
TGI [28]: 14.2 µM
GI50 [29]: 10.1 µM
TGI [29]: 23.1 µM
